The record followed here is patent US10829718B2, “Detergent composition comprising a carbinol functional trisiloxane” (Dow Silicones Corporation, priority 2016, dated 2020).

The format of the data set is physicochemical. An excerpt: The directive essentially states that if a material is classified as a surfactant in must pass certain biodegradation protocols. A surfactant was generally defined as a material capable of: 1) reducing the surface tension of water to ≤45 dynes/cm (or ≤45 mN/m) at a concentration of 0.5 wt % of the material in water; 2) forming spreading or adsorption monolayers at an air/water interface; 3) forming emulsions, microemulsions and/or micelles; and 4) adsorption at a water/solid interface. Surface tension of an aqueous solution, fluid, or mixture can readily be determined by various methods understood in the art. Generally, for stable solutions or mixtures, an equilibrium method such as the Wilhelmy plate method or Du Noüy ring method can be utilized. Alternately, for more dynamic systems, a pendant drop method can be utilized. This technique results in a fresh surface for each measurement. This method is also useful to reduce the potential for insoluble hydrophobic impurities or oils which could impact the surface tension measurement resulting in artificially low surface tension values. An example of such a surfactant assessment/classification is illustrated in the flow diagram of FIG. 3. Referring to the protocol illustrated in FIG. 3, the initial assessment is whether or not a 0.5 wt % mixture of the material being tested is soluble in water. Mixtures were prepared by adding 0.5% of the material to distilled water at 20° C. and mixing with a magnetic stir bar for one hour. If the material is soluble in water, as indicated, for example, by the formation of a clear or slightly hazy mixture, then surface tension (σ) is determined. If σ is >45 mN/m, the material is not classified as a surfactant. If σ is ≤45 mN/m, and micelles are not present, the material is not classified as a surfactant. Conversely, if micelles are present, the material is classified as a surfactant. If the material is not soluble in water, and no emulsion is present (e.g. solid particles or gels are present instead), then the material is not classified as a surfactant. If an emulsion is present (e.g. droplets are present) and the emulsion in stable, then σ is determined. If σ is >45 mN/m, the material is not classified as a surfactant. Conversely, if σ is ≤45 mN/m, the material is classified as a surfactant. If the material is not soluble in water, and an emulsion is present (e.g. droplets are present) and the emulsion is not stable, the emulsion is then centrifuged. The (clear) main phase (or supernatant) of the emulsion is further studied and the a is determined. If σ is >45 mN/m, the material is not classified as a surfactant. Conversely, if σ is ≤45 mN/m, and micelles are not present, the material is not classified as a surfactant. […]

For `CN(CC(O)COCCC[Si](C)(O[Si](C)(C)C)O[Si](C)(C)C)C[C@H](O)[C@@H](O)[C@H](O)[C@H](O)CO` (stereo partly shown) [Example 11, BisH-AGE-NMG], the solubility in water result was “generally insoluble” and the “stability of the mixture in water” value is reported as “stable”. Besides, the “appearance / behaviour of the mixture in water” value (0.5 wt % mixture in water) is “formed a hazy mixture”. Besides, the “classification as surfactant / non-surfactant according to the protocol/flow diagram” value (0.5 wt % of the material in distilled water at 20° C., mixed one hour) was “surfactant”.
